Source: ChEMBL document CHEMBL1201862, “PubChem BioAssay data set” (2004)
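Assay format: 96-well plates, 48-hour exposure. Abbreviation: GI50, concentration required for 50% inhibition of growth.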 The source made the active and inactive calls. No stated cut-off is given here; in the data, active = GI50 up to about 1.1 µM and inactive = higher.

Key:
Assay in all cases: growth of human tumour cells (NCI), 48 h
786-0 = tested on: 786-0
SNB-75 = tested on: SNB-75
HT-29 = tested on: HT-29
RXF 393 = tested on: RXF 393
IGROV-1 = tested on: IGROV-1
SF-295 = tested on: SF-295
UO-31 = tested on: UO-31
KM-20L2 = tested on: KM-20L2
CCRF-CEM = tested on: CCRF-CEM
NCI-H226 = tested on: NCI-H226
SK-MEL-28 = tested on: SK-MEL-28
TK-10 = tested on: TK-10
HOP-62 = tested on: HOP-62
UACC-257 = tested on: UACC-257
OVCAR-8 = tested on: OVCAR-8
U-251 = tested on: U-251
DLD-1 = tested on: DLD-1
SK-MEL-2 = tested on: SK-MEL-2
HOP-92 = tested on: HOP-92
COLO 205 = tested on: COLO 205
XF498 = tested on: XF498
RXF 631 = tested on: RXF 631
SF-539 = tested on: SF-539
HCT-116 = tested on: HCT-116
NCI-H460 = tested on: NCI-H460
UACC-62 = tested on: UACC-62
LXFL 529 = tested on: LXFL 529
SW-620 = tested on: SW-620
M14 = tested on: M14
A549 = tested on: A549
NCI-H522 = tested on: NCI-H522
NCI-H23 = tested on: NCI-H23
K562 = tested on: K562
OVCAR-3 = tested on: OVCAR-3
SNB-78 = tested on: SNB-78
SN12C = tested on: SN12C
HL-60 = tested on: HL-60
HCC 2998 = tested on: HCC 2998
ACHN = tested on: ACHN
EKVX = tested on: EKVX
HCT-15 = tested on: HCT-15
SF-268 = tested on: SF-268
SK-MEL-5 = tested on: SK-MEL-5
SK-OV-3 = tested on: SK-OV-3
MOLT-4 = tested on: MOLT-4
RPMI-8226 = tested on: RPMI-8226
CAKI-1 = tested on: CAKI-1
A498 = tested on: A498
SNB-19 = tested on: SNB-19
HOP-18 = tested on: HOP-18
DMS-273 = tested on: DMS-273
DMS-114 = tested on: DMS-114
KM12 = tested on: KM12
LOX IMVI = tested on: LOX IMVI
Malme-3M = tested on: Malme-3M
OVCAR-5 = tested on: OVCAR-5

## Cc1ccccc1NC(=O)C(=O)C(C#N)c1ccc(Cl)cc1 (stereo unspecified)
786-0
  GI50: 28 µM (inactive)
SNB-75
  GI50: > 100 µM (inactive)
HT-29
  GI50: 28.8 µM (inactive)
RXF 393
  GI50: > 100 µM (inactive)
IGROV-1
  GI50: 63.7 µM (inactive)
SF-295
  GI50: 64.3 µM (inactive)
UO-31
  GI50: 57.7 µM (inactive)
KM-20L2
  GI50: 33.6 µM (inactive)
CCRF-CEM
  GI50: 64 µM (inactive)
NCI-H226
  GI50: 78.5 µM (inactive)
SK-MEL-28
  GI50: 67.5 µM (inactive)
TK-10
  GI50: 81.5 µM (inactive)
HOP-62
  GI50: > 100 µM (inactive)
UACC-257
  GI50: > 100 µM (inactive)
OVCAR-8
  GI50: 46.6 µM (inactive)
U-251
  GI50: 51.1 µM (inactive)
DLD-1
  GI50: 41.8 µM (inactive)
SK-MEL-2
  GI50: 56.5 µM (inactive)
HOP-92
  GI50: 45.8 µM (inactive)
COLO 205
  GI50: 31.3 µM (inactive)
XF498
  GI50: 33.8 µM (inactive)
RXF 631
  GI50: 34.7 µM (inactive)
SF-539
  GI50: 30.4 µM (inactive)
HCT-116
  GI50: 34 µM (inactive)
NCI-H460
  GI50: 21.3 µM (inactive)
UACC-62
  GI50: 37.4 µM (inactive)
LXFL 529
  GI50: 51.4 µM (inactive)
SW-620
  GI50: 15.4 µM (inactive)
M14
  GI50: 45.9 µM (inactive)
A549
  GI50: 95.5 µM (inactive)
NCI-H522
  GI50: 50.7 µM (inactive)
NCI-H23
  GI50: 56.5 µM (inactive)
K562
  GI50: 29.1 µM (inactive)
OVCAR-3
  GI50: > 100 µM (inactive)
SNB-78
  GI50: > 100 µM (inactive)
SN12C
  GI50: 44.9 µM (inactive)
HL-60
  GI50: 27.8 µM (inactive)
HCC 2998
  GI50: 19.6 µM (inactive)
ACHN
  GI50: 74.1 µM (inactive)
EKVX
  GI50: > 100 µM (inactive)
HCT-15
  GI50: 18.7 µM
SF-268
  GI50: 69.8 µM (inactive)
SK-MEL-5
  GI50: 41.8 µM (inactive)
SK-OV-3
  GI50: > 100 µM (inactive)
MOLT-4
  GI50: 52.6 µM (inactive)
RPMI-8226
  GI50: 22.6 µM (inactive)
CAKI-1
  GI50: > 100 µM (inactive)
A498
  GI50: > 100 µM (inactive)
SNB-19
  GI50: 63.2 µM (inactive)
HOP-18
  GI50: 47.8 µM (inactive)
DMS-273
  GI50: 33 µM (inactive)
DMS-114
  GI50: 39.8 µM (inactive)
KM12
  GI50: 44.6 µM (inactive)
LOX IMVI
  GI50: 17.3 µM (inactive)
Malme-3M
  GI50: > 100 µM (inactive)
OVCAR-5
  GI50: 54 µM (inactive)
